Experimental data reported in patent US11149037B2, “Pyrazole MAGL inhibitors” (H. Lundbeck A/S, priority 2017, dated 2021).

Experiments:
FAAH [1] = target: FAAH (Homo sapiens (Human), UniProt O00519); assay: In vitro competitive activity-based protein profiling, human proteomes (prefrontal cortex or PC3 cell membrane fractions); format: biochemical; conditions: human proteome; for inhibition at 1 µM: read-out: FAAH % inh. 1 μM (human)
Outline: (§1)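 Activity of MAGL and FAAH was quantified from fluorescent gel band intensities. Beforehand, inhibitors at several concentrations competed against subsequent probe labelling (FP-Rh, JW912 or HT-01) in species-matched proteomes, each step 30 min at 37° C.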

MAGL [2] = target: MAGL (Homo sapiens (Human), UniProt Q99685); assay: as above; format: biochemical; conditions: human proteome; for inhibition at 1 µM: read-out: MAGL % inh. 1 μM (human)
Chain of MAGL (Homo sapiens (Human), UniProt Q99685) (Q99685 whole entry): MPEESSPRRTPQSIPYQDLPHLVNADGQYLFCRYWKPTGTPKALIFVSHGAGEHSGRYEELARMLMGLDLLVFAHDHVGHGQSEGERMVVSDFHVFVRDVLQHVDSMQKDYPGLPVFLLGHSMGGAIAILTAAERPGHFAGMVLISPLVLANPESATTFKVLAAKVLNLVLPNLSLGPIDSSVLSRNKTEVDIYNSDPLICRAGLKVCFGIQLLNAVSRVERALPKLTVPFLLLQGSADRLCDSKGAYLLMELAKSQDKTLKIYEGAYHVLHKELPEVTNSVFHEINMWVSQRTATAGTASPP
Outline: as §1

FAAH [3] = target: T1, FAAH (Mus musculus (Mouse), UniProt O08914); assay: In vitro competitive activity-based protein profiling, mouse proteomes (brain membrane fraction or cell lysates); format: biochemical; conditions: mouse proteome; for inhibition at 1 µM: read-out: FAAH % inh. 1 μM (mouse)
T1 sequence (O08914 whole entry): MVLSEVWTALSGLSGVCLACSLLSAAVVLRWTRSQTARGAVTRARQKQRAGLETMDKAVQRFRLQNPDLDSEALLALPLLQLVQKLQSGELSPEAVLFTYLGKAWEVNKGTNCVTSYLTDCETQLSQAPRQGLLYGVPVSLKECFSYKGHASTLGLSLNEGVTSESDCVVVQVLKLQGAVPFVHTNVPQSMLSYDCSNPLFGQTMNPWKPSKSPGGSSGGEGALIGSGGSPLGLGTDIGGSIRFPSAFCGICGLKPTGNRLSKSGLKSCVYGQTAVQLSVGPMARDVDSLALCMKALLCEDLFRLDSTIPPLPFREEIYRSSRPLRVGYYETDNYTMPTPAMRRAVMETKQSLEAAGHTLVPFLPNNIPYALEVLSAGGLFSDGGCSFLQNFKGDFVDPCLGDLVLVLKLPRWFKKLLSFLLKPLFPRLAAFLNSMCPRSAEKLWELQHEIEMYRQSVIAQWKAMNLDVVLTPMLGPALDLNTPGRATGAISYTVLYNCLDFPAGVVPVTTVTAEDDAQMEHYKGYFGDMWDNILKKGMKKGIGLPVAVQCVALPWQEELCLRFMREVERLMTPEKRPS
Outline: as §1

MAGL [4] = target: T2, MAGL (Mus musculus (Mouse), UniProt O35678); assay: as above; format: biochemical; conditions: mouse proteome; for inhibition at 1 µM: read-out: MAGL % inh. 1 μM (mouse)
T2 sequence (O35678 whole entry): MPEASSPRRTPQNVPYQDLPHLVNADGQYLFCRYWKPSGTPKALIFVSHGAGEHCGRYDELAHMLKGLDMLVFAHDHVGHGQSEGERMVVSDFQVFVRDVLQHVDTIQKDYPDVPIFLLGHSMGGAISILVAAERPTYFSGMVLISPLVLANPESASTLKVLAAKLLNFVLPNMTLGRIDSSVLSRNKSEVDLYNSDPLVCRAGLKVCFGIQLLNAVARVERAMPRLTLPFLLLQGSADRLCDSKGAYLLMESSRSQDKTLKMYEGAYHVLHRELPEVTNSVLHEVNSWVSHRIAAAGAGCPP
Outline: as §1

FAAH [5] = target: T1, FAAH; assay: Mouse brain proteomes from inhibitor treated mice (oral gavage, sacrificed 4 h after administration); format: in vivo; conditions: 5 mg/kg oral gavage
Experimental: (§2) Preparation of Mouse Brain Proteomes from Inhibitor Treated Mice.
(§3) Inhibitors were administered to wild-type C57B1/6J by oral gavage in a vehicle of polyethylene glycol. Each animal was sacrificed 4 h following administration and brain proteomes were prepared and analyzed according to previously established methods (See Niphakis, M. J., et al. (2011) ACS Chem. Neurosci. and Long, J. Z., et al. Nat. Chem. Biol. 5:37-44).

MAGL [6] = target: T2, MAGL; assay: as above; format: in vivo; conditions: 5 mg/kg oral gavage
Experimental: as §2, §3

Chain of FAAH (Homo sapiens (Human), UniProt O00519) (O00519 whole entry): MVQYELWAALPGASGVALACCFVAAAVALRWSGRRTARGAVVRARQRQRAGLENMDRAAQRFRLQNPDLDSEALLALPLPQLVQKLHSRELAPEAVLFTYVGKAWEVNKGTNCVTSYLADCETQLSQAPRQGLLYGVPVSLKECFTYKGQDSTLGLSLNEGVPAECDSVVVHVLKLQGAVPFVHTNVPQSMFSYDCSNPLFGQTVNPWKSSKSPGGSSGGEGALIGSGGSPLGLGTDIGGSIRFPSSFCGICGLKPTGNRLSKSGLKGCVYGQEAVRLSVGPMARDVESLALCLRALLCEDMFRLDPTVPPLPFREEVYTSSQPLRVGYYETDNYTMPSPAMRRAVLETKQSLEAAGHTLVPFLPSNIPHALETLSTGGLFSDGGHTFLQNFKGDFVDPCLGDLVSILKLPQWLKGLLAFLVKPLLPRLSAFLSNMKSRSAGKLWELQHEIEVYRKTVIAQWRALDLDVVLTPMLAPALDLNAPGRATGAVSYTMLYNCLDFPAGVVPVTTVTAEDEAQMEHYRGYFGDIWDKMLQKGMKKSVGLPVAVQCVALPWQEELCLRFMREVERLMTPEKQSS

| inhibition at 1 µM (FAAH [1]; 1 μM) [%] | inhibition at 1 µM (MAGL [2]; 1 μM) [%] | inhibition at 1 µM (FAAH [3]) [%] | inhibition at 1 µM (MAGL [4]) [%] | IC50 (FAAH [1]) [µM] | IC50 (MAGL [2]) [µM] | Compound | FAAH % inh. 5 mg/kg (mouse) (FAAH [5]) | MAGL % inh. 5 mg/kg (mouse) (MAGL [6]) | FAAH % inh. 1 μM (human) (FAAH [1]; 1 μM) | MAGL % inh. 1 μM (human) (MAGL [2]; 1 μM) | FAAH % inh. 1 μM (mouse) (FAAH [3]) | MAGL % inh. 1 μM (mouse) (MAGL [4]) |
| --- | --- | --- | --- | --- | --- | --- | --- | --- | --- | --- | --- | --- |
| 0 to 25 | > 75 | 0 to 25 | > 75 |  |  | C[C@H]1CN(C(=O)n2ccc(NS(C)(=O)=O)n2)CCN1Cc1ccc(Cl)c(N2CC3COCC3C2)c1 (stereo partly drawn) [Example 143, N-(1-((3S)-4-(4-Chloro-3-(tetrahydro-1H-furo[3,4-c]pyrrol-5(3H)-yl)benzyl)-3-methylpiperazine-1-carbonyl)-1H-pyrazol-3-yl)methanesulfonamide] | D (% inhibition is greater than or equal to 0% and less than 25%) | D (% inhibition is greater than or equal to 0% and less than 25%) |  |  |  |  |
| 0 to 25 | > 75 | 0 to 25 | > 75 |  |  | CC(=O)Nc1ccn(C(=O)N2CCN(Cc3ccc(Cl)cc3OCCCC(=O)O)CC2)n1 [Example 106, 4-(2-((4-(3-Acetamido-1H-pyrazole-1-carbonyl)piperazin-1-yl)methyl)-5-chlorophenoxy)butanoic acid] | D (% inhibition is greater than or equal to 0% and less than 25%) | D (% inhibition is greater than or equal to 0% and less than 25%) |  |  |  |  |
| 0 to 25 | > 75 | 0 to 25 | > 75 |  |  | CN(Cc1ccc(C(F)(F)F)cc1N1CCOCC1)C1(C)CCN(C(=O)n2ccc(NS(C)(=O)=O)n2)CC1 [Example 94, N-(1-(4-Methyl-4-(methyl(2-morpholino-4-(trifluoromethyl)benzyl)amino)piperidine-1-carbonyl)-1H-pyrazol-3-yl)methanesulfonamide] | D (% inhibition is greater than or equal to 0% and less than 25%) | A (% inhibition is greater than or equal to 75%) |  |  |  |  |
|  |  | 50 to 75 | > 75 | 1 to 10 | < 0.1 | CC(=O)Nc1ccn(C(=O)N2CCC3(CCCN3Cc3cc4cc(Cl)ccc4s3)CC2)n1 [Example 39, N-(1-(1-((5-Chlorobenzo[b]thiophen-2-yl)methyl)-1,8-diazaspiro[4.5]decane-8-carbonyl)-1H-pyrazol-3-yl)acetamide] | D (% inhibition is greater than or equal to 0% and less than 25%) | A (% inhibition is greater than or equal to 75%) |  |  |  |  |
| 0 to 25 | > 75 | 0 to 25 | > 75 |  |  | CC(=O)Nc1ccn(C(=O)N2CCC3(CCN(Cc4ccc(C(N)=O)c(C(F)(F)F)c4)C3)CC2)n1 [Example 125, 4-((8-(3-Acetamido-1H-pyrazole-1-carbonyl)-2,8-diazaspiro[4.5]decan-2-yl)methyl)-2-(trifluoromethyl)benzamide] | D (% inhibition is greater than or equal to 0% and less than 25%) | D (% inhibition is greater than or equal to 0% and less than 25%) |  |  |  |  |
| 0 to 25 | > 75 | 0 to 25 | > 75 |  |  | CS(=O)(=O)Nc1ccn(C(=O)N2CCC(Oc3ccc(C(F)(F)F)cc3-c3nnco3)CC2)n1 [Example 96, N-(1-(4-(2-(1,3,4-Oxadiazol-2-yl)-4-(trifluoromethyl)phenoxy)piperidine-1-carbonyl)-1H-pyrazol-3-yl)methanesulfonamide] | D (% inhibition is greater than or equal to 0% and less than 25%) | D (% inhibition is greater than or equal to 0% and less than 25%) |  |  |  |  |
| 0 to 25 | > 75 | 0 to 25 | > 75 |  |  | C[C@@H]1CN(C(=O)n2ccc(NS(C)(=O)=O)n2)CCN1Cc1ccc(Cl)c(N2CCC(F)CC2)c1 [Example 138, (R)-N-(1-(4-(4-Chloro-3-(4-fluoropiperidin-1-yl)benzyl)-3-methylpiperazine-1-carbonyl)-1H-pyrazol-3-yl)methanesulfonamide] | D (% inhibition is greater than or equal to 0% and less than 25%) | A (% inhibition is greater than or equal to 75%) |  |  |  |  |
|  |  |  |  |  |  | CS(=O)(=O)Nc1ccn(C(=O)N2C[C@H]3C[C@@H](N(CC(=O)O)Cc4cc(Cl)ccc4C(F)(F)F)C[C@H]3C2)n1 [Example 93, N-(5-Chloro-2-(trifluoromethyl)benzyl)-N-((3aR,5r,6aS)-2-(3-(methylsulfonamido)-1H-pyrazole-1-carbonyl)octahydrocyclopenta[c]pyrrol-5-yl)glycine] | D (% inhibition is greater than or equal to 0% and less than 25%) | D (% inhibition is greater than or equal to 0% and less than 25%) | D (% inhibition is greater than or equal to 0% and less than 25%) | A (% inhibition is greater than or equal to 75%) | D (% inhibition is greater than or equal to 0% and less than 25%) | A (% inhibition is greater than or equal to 75%) |
| 0 to 25 | > 75 | 0 to 25 | > 75 |  |  | C[C@@H]1CCCN1c1cc(CN2CCN(C(=O)n3ccc(NS(C)(=O)=O)n3)CC2)ccc1C(F)(F)F [Example 156, (R)-N-(1-(4-(3-(2-Methylpyrrolidin-1-yl)-4-(trifluoromethyl)benzyl)piperazine-1-carbonyl)-1H-pyrazol-3-yl)methanesulfonamide] | D (% inhibition is greater than or equal to 0% and less than 25%) | A (% inhibition is greater than or equal to 75%) |  |  |  |  |
| 0 to 25 | > 75 | 0 to 25 | > 75 |  |  | CS(=O)(=O)Nc1ccn(C(=O)N2CCN(Cc3ccc(C(F)(F)F)nc3N3CCCC3)CC2)n1 [Example 71, N-(1-(4-((2-(Pyrrolidin-1-yl)-6-(trifluoromethyl)pyridin-3-yl)methyl)piperazine-1-carbonyl)-1H-pyrazol-3-yl)methanesulfonamide] | D (% inhibition is greater than or equal to 0% and less than 25%) | A (% inhibition is greater than or equal to 75%) |  |  |  |  |
| 0 to 25 | > 75 | 0 to 25 | > 75 |  |  | CS(=O)(=O)Nc1ccn(C(=O)N2CCN(Cc3ccc(Cl)c(N4C[C@H]5C[C@@H]4CO5)c3)CC2)n1 [Example 157, N-(1-(4-(3-((1R,4R)-2-Oxa-5-azabicyclo[2.2.1]heptan-5-yl)-4-chlorobenzyl)piperazine-1-carbonyl)-1H-pyrazol-3-yl)methanesulfonamide] | D (% inhibition is greater than or equal to 0% and less than 25%) | D (% inhibition is greater than or equal to 0% and less than 25%) |  |  |  |  |
| 0 to 25 | > 75 | 0 to 25 | > 75 |  |  | CS(=O)(=O)Nc1ccn(C(=O)N2CCN(Cc3ccc(C(F)(F)F)c(N4CC[C@H](F)C4)c3)CC2)n1 [Example 119, (S)-N-(1-(4-(3-(3-Fluoropyrrolidin-1-yl)-4-(trifluoromethyl)benzyl)piperazine-1-carbonyl)-1H-pyrazol-3-yl)methanesulfonamide] | D (% inhibition is greater than or equal to 0% and less than 25%) | A (% inhibition is greater than or equal to 75%) |  |  |  |  |
